Assay [1] has as its system microorganisms. The assay is described as follows: Morphology, biofilm and growth disrupting peptides (Table 5). The format is cell-based. Further details: key: A: Peptide aggregates; B: Less hyphal formation; Clumps; Diffuse clumps and small polyps; F: Diffuse growth; H: Thin; I: Growth inhibition; Microcolony formation; Rippled; Small polyps; Thick; W: Halo formation on top, microlonies on bottom. From the text: In certain embodiments peptides that induce alterations in phenotype or other biological activities can also be used as antimicrobial effector moieties.

The subject of assay [2] is microorganisms. As to the kind of experiment: Peptide activities: targeting/binding, antimicrobial, growth or phenotype altering (Tables 7, 8). The following applies: peptides having multiple activities. It counts as cell-based.
Assay [3] relates to microorganisms. As to the kind of experiment: Targeting peptide binding to target microorganisms (Tables 3, 10, 12). The conditions noted are these: microorganism(s) the targeting peptide binds; binding in aqueous buffers varied with peptide solubility, preferably 1x PBS.

Here are results for eight substances from patent US20110039763A1, “TARGETED ANTIMICROBIAL MOIETIES” (C3 JIAN, INC., priority 2009, published 2011).

“Also recorded” adds a separate entry of the source.

Take “PF-585: peptide having multiple activities (chain 1 DYNHLLNVVQDWVNTN; chain 2 DYNHLLNVVQDWVNTN; Peptide with targeting and/or antimicrobial activity)”: the “Organism, effect” value in the assay with microorganisms [1] (C. jejuni) is on record as “C. jejuni (R)”; in the assay on microorganisms [1] (E. faecalis), “E. faecalis (A)”; in the assay with microorganisms [1] (MRSA), “MRSA (S)”; in the assay on microorganisms [1] (S. epidermidis), “S. epidermidis (S)”; in the assay on microorganisms [1] (S. pneumoniae) it was “S. pneumoniae (R)”. For the same substance, the Activities result in the assay on microorganisms [2] was “G B”. For the same substance, the “Target(s)” value in the assay with microorganisms [3] is “S. epidermidis and E. coli and C. albicans and MRSA and S. pneumoniae and C. jeikeium”.
As to “PF-588: peptide having multiple activities (chain 1 ESVEAIKAKAIK; chain 2 ESVEAIKAKAIK; Peptide with targeting and/or antimicrobial activity)”, the “Organism, effect” value in the assay with microorganisms [1] (E. faecalis) was “E. faecalis (A)”. In the assay with microorganisms [2], the Activities entry was “G B”. Further, the “Target(s)” value in the assay on microorganisms [3] was “S. epidermidis; also recorded: E. coli; also recorded: C. albicans; also recorded: E. faecalis; also recorded: C. jeikeium; also recorded: C. jejuni”.
Consider “PF-590: peptide having multiple activities (chain 1 YYQAKLFPLL; chain 2 YYQAKLFPLL; Peptide with targeting and/or antimicrobial activity)”, for which, in the assay on microorganisms [1] (C. jejuni), the “Organism, effect” value is listed as “C. jejuni (R)”. For the same substance, in the assay with microorganisms [2], the Activities result is recorded as “G B”. In addition, in the assay with microorganisms [3], the “Target(s)” value is reported as “S. epidermidis; also recorded: M. luteus; also recorded: E. coli; also recorded: E. faecalis; also recorded: C. jeikeium”.
In the case of “PF-593: peptide having multiple activities (chain 1 MEISTLKKEKLHVKDELSQYLANYKK; chain 2 MEISTLKKEKLHVKDELSQYLANYKK; Peptide with targeting and/or antimicrobial activity)”, the “Organism, effect” value with microorganisms [1] (E. faecalis) is recorded as “E. faecalis (A)”. In addition, the Activities entry in the assay on microorganisms [2] is reported as “G B”. Also, the “Target(s)” value in the assay with microorganisms [3] was “C. jeikeium”.
“PF-594: peptide having multiple activities (chain 1 IVSAIV; chain 2 IVSAIV; Peptide with targeting and/or antimicrobial activity)”: the “Organism, effect” value with microorganisms [1] (E. faecalis) is recorded as “E. faecalis (C)”. Besides, the Activities result in the assay on microorganisms [2] is listed as “G B”. Further, in the assay on microorganisms [3], the “Target(s)” value was “C. jeikeium”.
With “PF-598: peptide having multiple activities (chain 1 MKFMLEVRNKAISAYKEITRTQI; chain 2 MKFMLEVRNKAISAYKEITRTQI; Peptide with targeting and/or antimicrobial activity)”, the “Organism, effect” value is recorded as “C. jejuni (R)” with microorganisms [1] (C. jejuni); “E. coli (C)” in the assay on microorganisms [1] (E. coli); “E. faecalis (R)” with microorganisms [1] (E. faecalis); “MRSA (D)” in the assay on microorganisms [1] (MRSA); “S. epidermidis (R)” in the assay on microorganisms [1] (S. epidermidis); “S. pneumoniae (R)” in the assay with microorganisms [1] (S. pneumoniae). Further, the Activities result in the assay with microorganisms [2] is given as “G B”. The “Target(s)” value in the assay with microorganisms [3] was “S. epidermidis and M. luteus and P. mirabilis and P. aeruginosa and C. albicans and MRSA and S. pneumoniae and C. jeikeium”.
Regarding “PF-599: peptide having multiple activities (chain 1 LFEIFKPKH; chain 2 LFEIFKPKH; Peptide with targeting and/or antimicrobial activity)”, the “Organism, effect” value was “C. jejuni (R)” in the assay on microorganisms [1] (C. jejuni); “E. faecalis (A)” in the assay on microorganisms [1] (E. faecalis); “MRSA (C)” with microorganisms [1] (MRSA); “S. epidermidis (M)” in the assay on microorganisms [1] (S. epidermidis); “S. pneumoniae (R)” in the assay with microorganisms [1] (S. pneumoniae). Further, in the assay on microorganisms [2], the Activities entry is on record as “G B”. Further, the “Target(s)” value in the assay with microorganisms [3] is “S. epidermidis and P. mirabilis and E. coli and C. albicans and MRSA and S. pneumoniae and C. jeikeium”.
Turning to “PF-601: peptide having multiple activities (chain 1 YRVTVKALE; chain 2 YRVTVKALE; Peptide with targeting and/or antimicrobial activity)”, the “Organism, effect” value in the assay with microorganisms [1] (C. jejuni) was “C. jejuni (A)”; in the assay on microorganisms [1] (E. faecalis), “E. faecalis (A)”. Besides, the Activities entry in the assay with microorganisms [2] was “G B”. For the same substance, in the assay on microorganisms [3], the “Target(s)” value is “C. jeikeium”.
